Test results published in patent US6528494B2 (priority 1996, dated 2003).
Structures can show the parent of a compound that is named as a salt.

Experiments:
Assay type in all cases: cell-based
adenosine 1 receptor = molecular target: T1, adenosine 1 receptor (Homo sapiens, UniProt P30542); assay: Agonist activity against adenosine 1 receptor (CHO cells, forskolin-enhanced cAMP/SPAP reporter); conditions: CHO cells transfected with human receptor; forskolin-enhanced cAMP via SPAP; mean of all the versions tested
T1 sequence (P30542 1-326): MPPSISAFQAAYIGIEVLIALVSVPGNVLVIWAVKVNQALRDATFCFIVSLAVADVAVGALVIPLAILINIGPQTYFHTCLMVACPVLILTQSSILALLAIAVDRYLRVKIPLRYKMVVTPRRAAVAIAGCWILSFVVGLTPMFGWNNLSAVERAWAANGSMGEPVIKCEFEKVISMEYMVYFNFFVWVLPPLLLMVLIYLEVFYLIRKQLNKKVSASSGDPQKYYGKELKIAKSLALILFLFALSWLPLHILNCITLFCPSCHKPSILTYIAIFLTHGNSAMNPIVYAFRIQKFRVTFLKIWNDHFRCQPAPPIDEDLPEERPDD
Method: (§1) (1) Agonist activity against adenosine 2a, adenosine 1 and adenosine 3 receptor subtypes.
(§2) The effect of test compounds was determined by their effects on basal levels of cAMP (A2a) or on forskolin-enhanced cAMP (A1 and A3) as reflected by changes in levels of SPAP.

adenosine 3 receptor = molecular target: T2, adenosine 3 receptor (Homo sapiens, UniProt P0DMS8); assay: Agonist activity against adenosine 3 receptor (CHO cells, forskolin-enhanced cAMP/SPAP reporter); conditions: CHO cells transfected with human receptor; forskolin-enhanced cAMP via SPAP; mean of all the versions tested
T2 sequence (P0DMS8 1-318): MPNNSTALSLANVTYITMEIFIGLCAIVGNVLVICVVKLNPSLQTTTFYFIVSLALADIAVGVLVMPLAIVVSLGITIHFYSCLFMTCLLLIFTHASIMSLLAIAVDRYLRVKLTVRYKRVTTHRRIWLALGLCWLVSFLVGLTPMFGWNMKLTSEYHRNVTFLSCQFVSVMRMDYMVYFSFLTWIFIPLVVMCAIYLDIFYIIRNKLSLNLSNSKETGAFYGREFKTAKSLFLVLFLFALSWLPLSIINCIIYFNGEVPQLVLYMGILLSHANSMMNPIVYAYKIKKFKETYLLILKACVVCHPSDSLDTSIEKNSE
Method: as §1, §2

adenosine 2a receptor = adenosine 2a receptor (Homo sapiens, UniProt P29274); assay: Agonist activity against adenosine 2a receptor (CHO cells, cAMP/SPAP reporter); conditions: CHO cells transfected with human receptor; basal cAMP via SPAP; mean of all the versions tested
Method: as §1, §2

Chain of adenosine 2a receptor (P29274 whole entry): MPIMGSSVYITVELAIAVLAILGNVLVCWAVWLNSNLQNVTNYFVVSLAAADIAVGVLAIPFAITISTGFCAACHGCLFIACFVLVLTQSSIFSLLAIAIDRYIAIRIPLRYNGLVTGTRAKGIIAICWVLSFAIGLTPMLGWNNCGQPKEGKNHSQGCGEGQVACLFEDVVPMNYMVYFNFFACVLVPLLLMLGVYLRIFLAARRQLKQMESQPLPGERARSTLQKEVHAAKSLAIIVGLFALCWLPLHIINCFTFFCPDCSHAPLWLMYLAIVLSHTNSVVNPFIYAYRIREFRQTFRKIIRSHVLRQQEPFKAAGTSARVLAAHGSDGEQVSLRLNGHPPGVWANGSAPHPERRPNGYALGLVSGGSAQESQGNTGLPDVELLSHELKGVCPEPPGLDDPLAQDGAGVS

| A1 EC50 as a ratio of that of NECA (adenosine 1 receptor) | A3 EC50 as a ratio of that of NECA (adenosine 3 receptor) | A2a EC50 as a ratio of that of NECA (adenosine 2a receptor) | Compound |
| --- | --- | --- | --- |
| 48.50 | >184 | 3.91 | CCn1nnc(C2OC(n3cnc4c(NC(CO)Cc5ccccc5)nc(NCCN5CCCCC5)nc43)C(O)C2O)n1 (stereo not drawn) [Example 103] |
| 55.60 | >326 | 5.86 | CC(C)n1nnc([C@H]2O[C@@H](n3cnc4c(N[C@H](CO)Cc5ccccc5)nc(NCCc5ccccn5)nc43)[C@H](O)[C@@H]2O)n1.O=CO [Example 63, (2R,3R,4S,5R)-2-[6-(1S-Hydroxymethyl-2-phenyl-ethylamino)-2-(2-pyridin-2-yl-ethylamino)-purin-9-yl]-5-(2-isopropyl-2H-tetrazol-5-yl)-tetrahydro-furan-3,4-diol Formate] |
| >2999.00 | >233 | 1.07 | Cn1nnc(C2OC(n3cnc4c(NCc5cccc(I)c5)nc(NC5CCC(N)CC5)nc43)C(O)C2O)n1.O=CO.O=CO [Example 105, (2R,3R,4S,5R)-2-[2-(trans-4-Amino-cyclohexylamino)-6-(3-iodo-benzylamino)-purin-9-yl]-5-(2-methyl-2H-tetrazol-5-yl)-tetrahydro-furan-3,4-diol bis(Formate)] |
| 73.85 | >326 | 2.96 | CCC(CC)Nc1nc(NC2CCC(N)CC2)nc2c1ncn2C1OC(c2nnn(C(C)C)n2)C(O)C1O.O=CO.O=CO [Example 67, (2R,3R,4S,5R)-2-[2-(trans-4-Amino-cyclohexylamino)-6-(1-ethyl-propylamino)-purin-9-yl]-5-(2-isopropyl-2H-tetrazol-5-yl)-tetrahydro-furan-3,4-diol bis(Formate)] |
| 12.6 | >133 | 0.1 | CCn1nnc(C2OC(n3cnc4c(NC(CO)Cc5ccccc5)nc(NCCc5cn(C)cn5)nc43)C(O)C2O)n1 [Example 8, (2R,3S,4R,5R)-2-(2-Ethyl-2H-tetrazol-5-yl)-5-{6-(1S-hydroxymethyl-2-phenyl-ethylamino)-2-[2-(1-methyl-1H-imidazol-4-yl)-ethylamino]-purin-9-yl}-tetrahydro-furan-3,4-diol Acetate] |
| 21.30 | >326 | 2.54 | CC(C)n1nnc([C@H]2O[C@@H](n3cnc4c(N[C@H](CO)Cc5ccccc5)nc(N[C@H]5CCNC5)nc43)[C@H](O)[C@@H]2O)n1.O=CO.O=CO [Example 64, (2R,3R,4S,5R)-2-[6-(1S-Hydroxymethyl-2-phenyl-ethylamino)-2-(pyrrolidin-3S-ylamino)-purin-9-yl]-5-(2-isopropyl-2H-tetrazol-5-yl)-tetrahydro-furan-3,4-diol bis(Formate)] |
| 247.6 | >346 | 0.69 | CCn1nnc(C2OC(n3cnc4c(N)nc(NCCc5ccc(S(N)(=O)=O)cc5)nc43)C(O)C2O)n1 (stereo not drawn) [Example 17, 4-(2-{6-Amino-9-[5R-(2-ethyl-2H-tetrazol-5-yl)-3R,4S-Dihydroxy-tetrahydro-furan-2R-yl]-9H-purin-2-ylamino}-ethyl)-benzenesulfonamide Formate] |
| 818.40 | >171 | 5.75 | CCn1nnc(C2OC(n3cnc4c(NCCC5CCCCC5)nc(NC5CCNC5)nc43)C(O)C2O)n1 [Example 73, (2R,3R,4S,5R)-2-[6-(2-Cyclohexyl-ethylamino)-2-(pyrrolidin-3S-ylamino)-purin-9-yl]-5-(2-ethyl-2H-tetrazol-5-yl)-tetrahydro-furan-3,4-diol bis(Formate)] |
| 111.30 | >201 | 2.25 | Cn1nnc(C2OC(n3cnc4c(NCc5cccc(I)c5)nc(NCCN5CCCC5)nc43)C(O)C2O)n1.O=CO.O=CO [Example 108, (2R,3R,4S,5R)-2-[6-(3-Iodo-benzylamino)-2-(2-pyrrolidin-1-yl-ethylamino)-purin-9-yl]-5-(2-methyl-2H-tetrazol-5-yl)-tetrahydro-furan-3,4-diol bis(Formate)] |

More lines, now with the values behind:

| Compound | A1 EC50 as a ratio of that of NECA (adenosine 1 receptor) | A3 EC50 as a ratio of that of NECA (adenosine 3 receptor) | A2a EC50 as a ratio of that of NECA (adenosine 2a receptor) |
| --- | --- | --- | --- |
| COc1ccc(CCNc2nc(N)c3ncn([C@@H]4O[C@H](c5nnn(C(C)C)n5)[C@@H](O)[C@H]4O)c3n2)cc1OC.O=CO [Example 42, (2R,3R,4S,5R)-2-{6-Amino-2-[2-(3,4-dimethoxy-phenyl)-ethylamino]-purin-9-yl}-5-(2-isopropyl-2H-tetrazol-5-yl)-tetrahydro-furan-3,4-diol Formate] | 414.9 | >413 | 0.63 |
| CCn1nnc([C@H]2O[C@@H](n3cnc4c(NCC(c5ccccc5)c5ccccc5)nc(NC5CCS(=O)(=O)C5)nc43)[C@H](O)[C@@H]2O)n1.O=C(O)C(F)(F)F.O=C(O)C(F)(F)F (stereo partly drawn) [Example 45] | >1578.00 | >420 | 2.26 |
| CC(C)n1nnc([C@H]2O[C@@H](n3cnc4c(NCCC(C)(C)C)nc(NCCc5cn(C)cn5)nc43)[C@H](O)[C@@H]2O)n1.O=CO [Example 56, (2R,3R,4S,5R)-2-{6-(3,3-Dimethyl-butylamino)-2-[2-(1-methyl-1H-imidazol-4-yl)-ethylamino]-purin-9-yl}-5-(2-isopropyl-2H-tetrazol-5-yl)-tetrahydro-furan-3,4-diol Formate] | 570.90 | >297 | 4.90 |
| CCn1nnc([C@H]2O[C@@H](n3cnc4c(N)nc(NC5CC6CCC5C6)nc43)[C@H](O)[C@@H]2O)n1.O=C(O)C(F)(F)F (stereo partly drawn) [Example 19, (2R,3R,4S,5R)-2-[6-Amino-2-(bicyclo[2.2.1]hept-2-ylamino)-purin-9-yl]-5-(2-ethyl-2H-tetrazol-5-yl)-tetrahydro-furan-3,4-diol Trifluoroacetate] | 85.6 | >382 | 0.21 |
| CC(=O)O.CC(=O)O.CCn1nnc(C2OC(n3cnc4c(NCCN5CCOCC5)nc(NCCc5cn(C)cn5)nc43)C(O)C2O)n1 [Example 50, (2R,3S,4R,5R)-2-(2-Ethyl-2H-tetrazol-5-yl)-5-[2-[2-(1-methyl-1H-imidazol-4-yl)-ethylamino]-6-(2-morpholin-4-yl-ethylamino)-purin-9-yl]-tetrahydro-furan-3,4-diol Diacetate] | 2443.00 | >86 | 1.48 |
| Cn1cnc(CCNc2nc(NCCC(C)(C)C)c3ncn([C@@H]4O[C@H](c5nnn(C)n5)[C@@H](O)[C@H]4O)c3n2)c1.O=CO [Example 28, (2R,3R,4S,5R)-2-{6-(3,3-Dimethyl-butylamino)-2-[2-(1-methyl-1H-imidazol-4-yl)-ethylamino]-purin-9-yl}-5-(2-methyl-2H-tetrazol-5-yl)-tetrahydro-furan-3,4-diol Formate] | >=1250 | >151 | 0.36 |
| CCn1nnc([C@H]2O[C@@H](n3cnc4c(N)nc(NCCNc5ccccn5)nc43)[C@H](O)[C@@H]2O)n1.O=C(O)C(F)(F)F [Example 55, (2R,3R,4S,5R)-2-{6-Amino-2-[2-(pyridin-2-ylamino)-ethylamino)-purin-9-yl}-5-(2-ethyl-2H-tetrazol-5-yl)-tetrahydro-furan-3,4-diol Trifluoroacetate] | 1136.00 | >435 | 5.77 |
| (2R,3R,4S,5R)-2-[6-(1-Ethyl-propylamino)-2-(2-piperidin-1-yl-ethylamino)-purin-9-yl]-5-(2-methyl-2H-tetrazol-5-yl)-tetrahydro-furan-3,4-diol Diformate [Example 24] | >4798 | >157 | 0.36 |
| CCn1nnc([C@H]2O[C@@H](n3cnc4c(NCC(c5ccccc5)c5ccccc5)nc(NCCN5CCOCC5)nc43)[C@H](O)[C@@H]2O)n1.O=C(O)C(F)(F)F.O=C(O)C(F)(F)F.O=C(O)C(F)(F)F [Example 44, (2R,3R,4S,5R)-2-[6-(2,2-Diphenyl-ethylamino)-2-(2-morpholin-4-yl-ethylamino)-purin-9-yl]-5-(2-ethyl-2H-tetrazol-5-yl)-tetrahydro-furan-3,4-diol tris(Trifluoroacetate)] | 44.11 | >546 | 3.25 |
